Test [1] concerns the target Sodium-dependent noradrenaline transporter (Homo sapiens, UniProt P23975). The test can be described thus: Selectivity interaction (Eurofins CEREP Diversity Profile (receptors and ion channels)) EUB0000279b SLC6A2. To be noted: at 10 µM.
The target of test [2] is T1, Tyrosine-protein kinase JAK3 (Homo sapiens) (UniProt P52333).
T1 sequence (whole entry): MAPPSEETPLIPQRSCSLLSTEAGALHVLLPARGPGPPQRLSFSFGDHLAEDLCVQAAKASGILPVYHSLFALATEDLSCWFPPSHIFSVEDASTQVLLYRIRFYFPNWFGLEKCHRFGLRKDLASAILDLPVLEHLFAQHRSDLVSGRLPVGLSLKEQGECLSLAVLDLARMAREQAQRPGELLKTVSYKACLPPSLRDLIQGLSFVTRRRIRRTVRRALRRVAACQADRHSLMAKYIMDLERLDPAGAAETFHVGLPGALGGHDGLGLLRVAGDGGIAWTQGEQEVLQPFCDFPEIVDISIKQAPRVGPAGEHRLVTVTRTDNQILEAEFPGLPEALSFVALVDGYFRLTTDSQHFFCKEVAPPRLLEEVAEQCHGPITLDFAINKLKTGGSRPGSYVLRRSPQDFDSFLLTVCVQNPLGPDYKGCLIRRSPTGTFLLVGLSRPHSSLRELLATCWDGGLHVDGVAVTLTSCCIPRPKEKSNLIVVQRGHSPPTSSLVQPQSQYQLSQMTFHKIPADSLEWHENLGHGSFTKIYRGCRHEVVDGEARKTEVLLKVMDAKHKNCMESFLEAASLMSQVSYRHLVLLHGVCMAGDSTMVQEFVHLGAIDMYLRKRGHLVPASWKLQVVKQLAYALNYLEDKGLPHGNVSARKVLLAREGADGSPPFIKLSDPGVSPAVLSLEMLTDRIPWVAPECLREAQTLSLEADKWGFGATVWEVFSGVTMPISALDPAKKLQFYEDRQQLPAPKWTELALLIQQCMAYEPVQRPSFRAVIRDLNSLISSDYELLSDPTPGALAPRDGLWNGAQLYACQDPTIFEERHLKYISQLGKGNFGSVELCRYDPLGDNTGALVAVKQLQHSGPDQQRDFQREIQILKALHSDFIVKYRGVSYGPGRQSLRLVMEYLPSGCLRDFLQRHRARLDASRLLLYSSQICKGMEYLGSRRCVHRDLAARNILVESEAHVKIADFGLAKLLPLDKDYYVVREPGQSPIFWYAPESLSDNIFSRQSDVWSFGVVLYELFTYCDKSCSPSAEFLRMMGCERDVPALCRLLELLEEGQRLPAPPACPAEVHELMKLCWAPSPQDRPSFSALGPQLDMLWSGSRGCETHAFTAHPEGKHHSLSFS
The test can be described thus: Selectivity interaction (KinomeScan (DiscoverX)) EUB0000607a JAK3. As to conditions: at 10 µM.

Test [3] concerns the target Cyclin-dependent kinase 2 (Homo sapiens, UniProt P24941). Description: Selectivity interaction (KinomeScan (DiscoverX)) EUB0000607a CDK2. To be noted: at 10 µM.
The target of test [4] is Casein kinase I isoform gamma-3 (Homo sapiens) (UniProt Q9Y6M4). The test can be described thus: Selectivity interaction (ProQinase) EUB0000171b CSNK1G3.
The target in test [5] is Serine/threonine-protein kinase WNK4 (Homo sapiens) (UniProt Q96J92). The test can be described thus: Selectivity interaction (KinomeScan (DiscoverX)) EUB0001049a WNK4. As to conditions: at 1 µM.
Test [6] has as its system Tyrosine-protein kinase ABL1 (Homo sapiens), P00519 [Q252H]. Description: Selectivity interaction (KinomeScan (DiscoverX)) EUB0001049a ABL1. To be noted: at 1 µM.
Test [7] concerns the target D(1A) dopamine receptor (Homo sapiens, UniProt P21728). The test can be described thus: Selectivity interaction (Panel of kinases, GPCRs, ion channels and transporters (enzymatic assay)) EUB0000223bCl DRD1.
In test [8] the target is T2, Bromodomain-containing protein 9 (Homo sapiens, UniProt Q9H8M2).
T2 sequence (Q9H8M2 whole entry): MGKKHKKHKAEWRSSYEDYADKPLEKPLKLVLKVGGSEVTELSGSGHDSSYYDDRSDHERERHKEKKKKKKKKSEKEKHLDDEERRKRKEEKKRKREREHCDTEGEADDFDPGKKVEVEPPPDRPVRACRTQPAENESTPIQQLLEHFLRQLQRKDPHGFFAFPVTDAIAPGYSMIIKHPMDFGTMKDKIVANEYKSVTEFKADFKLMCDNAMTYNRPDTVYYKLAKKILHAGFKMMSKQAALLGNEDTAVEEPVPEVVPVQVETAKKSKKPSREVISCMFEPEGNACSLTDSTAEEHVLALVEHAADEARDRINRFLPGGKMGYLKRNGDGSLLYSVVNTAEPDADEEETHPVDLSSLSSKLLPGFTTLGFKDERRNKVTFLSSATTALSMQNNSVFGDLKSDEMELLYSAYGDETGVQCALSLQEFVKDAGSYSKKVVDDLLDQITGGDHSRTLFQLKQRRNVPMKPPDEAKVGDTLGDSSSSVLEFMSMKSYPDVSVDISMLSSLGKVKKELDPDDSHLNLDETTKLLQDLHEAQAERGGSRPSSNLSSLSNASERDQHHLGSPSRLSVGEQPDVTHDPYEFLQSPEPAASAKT
Description: Selectivity interaction (ITC measurement) EUB0000233b BRD9. Background: Isothermal titration calorimetry measures the heat released or taken up as one component is titrated into another.

Test [9] deals with Phosphatidylinositol 4-phosphate 3-kinase C2 domain-containing subunit beta (Homo sapiens) (UniProt O00750). The test can be described thus: Selectivity interaction (KinomeScan (DiscoverX)) EUB0001079a PIK3C2B. To be noted: at 1 µM.

Structures are written as SMILES.

What is called Kd is the constant that tells how readily two partners part at equilibrium. A higher Kd goes with a looser complex.

Sequence of Casein kinase I isoform gamma-3 (Homo sapiens) (Q9Y6M4 whole entry, looked up, canonical isoform): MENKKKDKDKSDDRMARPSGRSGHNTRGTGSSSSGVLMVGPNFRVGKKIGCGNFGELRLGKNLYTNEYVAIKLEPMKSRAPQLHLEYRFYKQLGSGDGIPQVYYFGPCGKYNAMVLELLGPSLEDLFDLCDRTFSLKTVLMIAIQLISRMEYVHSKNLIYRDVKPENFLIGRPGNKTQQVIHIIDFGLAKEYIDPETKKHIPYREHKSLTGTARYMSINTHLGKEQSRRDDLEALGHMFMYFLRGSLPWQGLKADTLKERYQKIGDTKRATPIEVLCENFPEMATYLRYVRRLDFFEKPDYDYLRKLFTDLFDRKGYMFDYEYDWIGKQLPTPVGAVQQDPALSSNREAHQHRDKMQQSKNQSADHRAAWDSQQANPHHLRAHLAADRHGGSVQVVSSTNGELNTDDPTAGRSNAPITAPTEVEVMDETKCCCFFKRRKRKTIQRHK
Sequence of Phosphatidylinositol 4-phosphate 3-kinase C2 domain-containing subunit beta (Homo sapiens) (O00750 whole entry, the tested form may be a part): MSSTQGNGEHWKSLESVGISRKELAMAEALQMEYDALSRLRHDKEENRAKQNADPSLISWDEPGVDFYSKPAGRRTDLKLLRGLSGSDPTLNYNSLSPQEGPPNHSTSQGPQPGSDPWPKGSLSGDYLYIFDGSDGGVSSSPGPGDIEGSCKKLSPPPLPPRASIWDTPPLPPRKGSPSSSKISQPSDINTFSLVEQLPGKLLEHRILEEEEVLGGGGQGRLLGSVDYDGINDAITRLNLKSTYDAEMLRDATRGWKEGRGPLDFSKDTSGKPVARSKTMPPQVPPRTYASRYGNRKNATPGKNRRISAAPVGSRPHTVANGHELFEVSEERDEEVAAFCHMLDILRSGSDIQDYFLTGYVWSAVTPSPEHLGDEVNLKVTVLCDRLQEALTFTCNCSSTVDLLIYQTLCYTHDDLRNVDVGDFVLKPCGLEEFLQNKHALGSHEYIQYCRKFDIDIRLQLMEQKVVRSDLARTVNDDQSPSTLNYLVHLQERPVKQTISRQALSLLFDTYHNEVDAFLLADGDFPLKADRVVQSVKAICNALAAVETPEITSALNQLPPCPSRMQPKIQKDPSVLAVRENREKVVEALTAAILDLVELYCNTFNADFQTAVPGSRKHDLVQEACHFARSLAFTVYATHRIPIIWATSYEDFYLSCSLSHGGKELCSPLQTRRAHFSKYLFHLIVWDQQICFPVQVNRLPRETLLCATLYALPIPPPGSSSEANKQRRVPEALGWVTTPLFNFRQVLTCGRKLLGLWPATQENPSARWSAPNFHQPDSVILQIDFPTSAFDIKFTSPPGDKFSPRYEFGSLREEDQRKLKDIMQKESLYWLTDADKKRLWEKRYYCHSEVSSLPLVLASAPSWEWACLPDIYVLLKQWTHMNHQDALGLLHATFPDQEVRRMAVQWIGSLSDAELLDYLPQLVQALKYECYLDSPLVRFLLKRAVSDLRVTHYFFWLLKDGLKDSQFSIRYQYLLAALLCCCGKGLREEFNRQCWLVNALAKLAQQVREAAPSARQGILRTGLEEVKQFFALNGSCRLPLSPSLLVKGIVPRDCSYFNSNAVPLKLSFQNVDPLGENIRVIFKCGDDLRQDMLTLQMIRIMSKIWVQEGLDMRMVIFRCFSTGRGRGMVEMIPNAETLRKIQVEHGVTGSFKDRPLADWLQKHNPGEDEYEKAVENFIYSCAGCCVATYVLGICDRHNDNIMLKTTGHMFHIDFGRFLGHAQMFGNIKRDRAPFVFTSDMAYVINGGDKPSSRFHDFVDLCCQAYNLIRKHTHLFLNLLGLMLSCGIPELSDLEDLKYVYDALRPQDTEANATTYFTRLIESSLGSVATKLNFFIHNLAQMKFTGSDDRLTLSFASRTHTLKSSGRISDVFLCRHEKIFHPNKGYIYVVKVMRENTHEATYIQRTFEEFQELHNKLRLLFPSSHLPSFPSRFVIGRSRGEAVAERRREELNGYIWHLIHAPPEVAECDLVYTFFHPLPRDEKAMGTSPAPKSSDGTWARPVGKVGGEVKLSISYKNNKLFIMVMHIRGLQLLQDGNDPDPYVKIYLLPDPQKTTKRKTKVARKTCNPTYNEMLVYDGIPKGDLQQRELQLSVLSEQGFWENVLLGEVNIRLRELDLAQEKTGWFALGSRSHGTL
Sequence of D(1A) dopamine receptor (P21728 whole entry): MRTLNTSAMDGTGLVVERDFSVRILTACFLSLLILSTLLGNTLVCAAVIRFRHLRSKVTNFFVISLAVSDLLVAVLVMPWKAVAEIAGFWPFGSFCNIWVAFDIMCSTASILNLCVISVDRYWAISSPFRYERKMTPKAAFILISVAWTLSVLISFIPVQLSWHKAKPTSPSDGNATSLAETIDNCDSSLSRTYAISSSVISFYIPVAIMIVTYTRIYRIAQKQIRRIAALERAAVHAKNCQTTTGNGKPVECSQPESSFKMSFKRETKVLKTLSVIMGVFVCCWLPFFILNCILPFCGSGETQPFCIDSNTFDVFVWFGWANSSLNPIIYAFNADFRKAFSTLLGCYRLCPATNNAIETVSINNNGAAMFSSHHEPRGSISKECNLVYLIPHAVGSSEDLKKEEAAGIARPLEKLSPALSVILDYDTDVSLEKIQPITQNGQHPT
Sequence of Serine/threonine-protein kinase WNK4 (Homo sapiens) (Q96J92 whole entry): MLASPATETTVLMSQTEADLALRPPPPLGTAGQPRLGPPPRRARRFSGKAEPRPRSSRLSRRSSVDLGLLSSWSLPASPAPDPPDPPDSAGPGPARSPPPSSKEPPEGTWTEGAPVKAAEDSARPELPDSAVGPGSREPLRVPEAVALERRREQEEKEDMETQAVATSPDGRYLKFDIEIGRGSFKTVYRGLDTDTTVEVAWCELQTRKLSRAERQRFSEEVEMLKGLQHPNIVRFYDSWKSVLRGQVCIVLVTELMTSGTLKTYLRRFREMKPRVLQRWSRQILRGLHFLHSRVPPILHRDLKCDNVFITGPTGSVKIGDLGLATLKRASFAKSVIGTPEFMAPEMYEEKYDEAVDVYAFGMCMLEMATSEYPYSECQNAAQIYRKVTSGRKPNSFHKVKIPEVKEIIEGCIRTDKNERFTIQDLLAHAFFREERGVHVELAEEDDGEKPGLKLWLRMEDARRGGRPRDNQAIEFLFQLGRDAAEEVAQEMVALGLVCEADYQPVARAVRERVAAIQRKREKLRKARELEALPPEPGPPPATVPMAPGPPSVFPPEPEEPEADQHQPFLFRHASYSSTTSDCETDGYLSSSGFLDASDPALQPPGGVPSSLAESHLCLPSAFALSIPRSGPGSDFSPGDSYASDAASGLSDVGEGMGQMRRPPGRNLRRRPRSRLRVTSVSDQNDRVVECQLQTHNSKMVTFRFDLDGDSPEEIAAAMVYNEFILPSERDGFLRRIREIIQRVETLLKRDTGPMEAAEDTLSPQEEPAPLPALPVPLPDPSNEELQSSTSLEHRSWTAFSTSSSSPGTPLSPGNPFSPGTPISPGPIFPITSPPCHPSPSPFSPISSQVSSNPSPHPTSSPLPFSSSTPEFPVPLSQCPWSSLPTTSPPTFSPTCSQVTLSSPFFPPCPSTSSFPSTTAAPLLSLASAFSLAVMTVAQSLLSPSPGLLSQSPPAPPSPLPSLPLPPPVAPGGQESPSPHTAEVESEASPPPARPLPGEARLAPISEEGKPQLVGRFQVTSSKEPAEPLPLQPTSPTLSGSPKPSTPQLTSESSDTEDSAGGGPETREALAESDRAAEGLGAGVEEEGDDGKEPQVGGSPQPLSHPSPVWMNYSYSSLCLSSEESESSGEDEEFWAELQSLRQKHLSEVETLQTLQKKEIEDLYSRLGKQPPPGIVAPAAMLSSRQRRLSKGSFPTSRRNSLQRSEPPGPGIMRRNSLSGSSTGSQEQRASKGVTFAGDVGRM
Sequence of Sodium-dependent noradrenaline transporter (P23975 whole entry): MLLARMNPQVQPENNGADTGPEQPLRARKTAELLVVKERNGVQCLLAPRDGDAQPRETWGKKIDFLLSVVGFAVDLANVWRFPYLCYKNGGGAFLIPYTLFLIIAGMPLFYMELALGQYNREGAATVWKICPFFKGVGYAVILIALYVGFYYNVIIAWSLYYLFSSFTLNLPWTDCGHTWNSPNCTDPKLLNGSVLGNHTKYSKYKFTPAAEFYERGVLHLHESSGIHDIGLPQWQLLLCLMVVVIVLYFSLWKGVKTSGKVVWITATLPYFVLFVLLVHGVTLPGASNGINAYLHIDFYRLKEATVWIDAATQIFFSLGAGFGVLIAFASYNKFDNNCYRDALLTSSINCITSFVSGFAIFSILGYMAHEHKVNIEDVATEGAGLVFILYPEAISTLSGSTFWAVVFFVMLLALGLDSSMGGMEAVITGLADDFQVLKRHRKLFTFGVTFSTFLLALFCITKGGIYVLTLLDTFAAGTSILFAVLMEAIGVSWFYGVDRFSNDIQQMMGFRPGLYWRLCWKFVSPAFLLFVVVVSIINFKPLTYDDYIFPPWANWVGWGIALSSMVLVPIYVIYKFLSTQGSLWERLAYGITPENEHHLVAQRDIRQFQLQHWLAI

`CC(=O)c1cc(-c2ccccc2OCC2CC2)c2ncccn12` came in with a % of control in test [1] of 90%.

Turning to `CNC(=O)Nc1ccc(-c2nc(N3CC4CCC(C3)O4)c3cnn(C4CCC5(CC4)OCCO5)c3n2)cc1`, the % of control was determined as 90% in test [2] and 92% in test [3].

Consider `C=CC(=O)Nc1cccc(C(=O)Nc2ccc(Nc3cc(-c4[nH]c(SC)nc4C)ccn3)cc2)c1`, for which the % of control stood at 38% in [4] (at 1 µM) and 12% in test [4] (at 5 µM).

For the molecule `COc1cc(Nc2nc(C)cc(-c3cnn4nc(OC)ccc34)n2)cc(C(F)(F)F)c1`, the % of control worked out at 100% in [5] and 80% in test [6].

Consider `COc1cc(C(=O)N2CC[C@@H](O)[C@@H](N)C2)cc2nc(-c3cc4ccccc4n3CC3CC3)n(C)c12`, for which, in test [7], the pXC50 was < 4.5 M.

As for `CN(C)CCCOc1ccc(-c2cc(NCCCn3cccn3)nc(S(C)(=O)=O)n2)cc1`, in test [8], the Kd stood at 1100 nM.

As for `Nc1cnc(N2CCc3cc(S(=O)(=O)Nc4c(F)cc(Cl)cc4F)cc(N4CCCC4=O)c32)nc1` [TP-020n], in [9], the % of control turned out to be 83%.

(Values after ChEMBL document CHEMBL5465560, “Selectivity Literature for EUbOPEN Chemogenomic Library” (2024).)
